{"source": "patent US20230390296A1", "about": "“NOVEL TREATMENT AND PREVENTION OF SARCOPENIA-RELATED DISEASES” (KEIO UNIVERSITY, priority 2020, published 2023)", "molecules": {"B1": {"name": "Bimagrumab: monoclonal antibodies (bimagrumab) developed by targeting Activin Receptor and ACVR2B (antibody, chains of the INN, looked up, V domains shown)", "VH": "QVQLVQSGAEVKKPGASVKVSCKASGYTFTSSYINWVRQAPGQGLEWMGTINPVSGSTSYAQKFQGRVTMTRDTSISTAYMELSRLRSDDTAVYYCARGGWFDYWGQGTLVTVSS", "VL": "QSALTQPASVSGSPGQSITISCTGTSSDVGSYNYVNWYQQHPGKAPKLMIYGVSKRPSGVSNRFSGSKSGNTASLTISGLQAEDEADYYCGTFAGGSYYGVFGGGTKLTVL"}}, "key": {"C2C12 cells": {"system": "C2C12 cells", "test": "Gene expression levels in treated cultured cells", "type": "cell-based, mouse", "description": "Mouse striated muscle derived cells, i.e., C2C12 cells, were cultured and treated with OK-1, ICG-001, or C-82. Gene expression levels of cells treated with OK-1, ICG-001, or C-82, and untreated cells are compared."}, "old mice (C57BL/6J)": {"system": "old mice (C57BL/6J)", "test": "Treadmill test of muscle strength (endurance) in young and old mice", "type": "in vivo, mouse", "conditions": "intraperitoneal, twice a week over three months, 20 mg/kg/day; young (15-week) and old (79-week) mice", "excerpt": "Decrease in endurance in old mice In order to confirm that a decrease in muscle strength is observed in mouse models (C57BL/6J) (purchased from Oriental Yeast), the muscle strength (endurance) in 15-week old young mice and 79-week-old old mice was investigated in a treadmill test in accordance with the following (FIG. 1A). Prior to recording the performance, mice were trained for 3 days to acclimate the mice to the equipment. Electric stimulation grid was adjusted to 1 mA, and the gradient was set to 15 degrees. On the first day of training, mice were induced to walk for 10 minutes at a rate of 10 m/minute, allowed to rest for 10 minutes, and then induced to walk for 10 minutes at a rate of 10 m/minute on a treadmill. On day 2 and day 3, the first two steps were the under the same conditions as day 1, and then the mice were induced to start walking at 10 m/minute. The speed was increased by 1 m/minute until reaching the maximum speed of 20 m/minute. On day 4, the maximum exercise endurance was measured. Six mice were placed on a treadmill, which was started at a belt speed of 5 m/minute for 5 minutes to let the mice warm up. The speed was increased 1 m/minute until reaching the maximum speed of 20 m/minute. After making the mice run for 5 minutes, the speed was increased from 20 m/minute to 21 m/minute for 10 minutes. The mice were then forced to run at 22 m/minute until stalling on the electric stimulation grid for 10 seconds. The distance traveled until stalling for 10 seconds was measured.\n(§1) OK-1 manufactured in Manufacturing Example 1 was intraperitoneally administered to young and old mice twice a week over three months. The dosage was 20 mg/kg/day.\n74-week old mice (C57B16/J) were purchased from Oriental Yeast. […] Muscle strength (endurance) and grip strength of mice administered with C-82 were then measured through a treadmill test and smart grip strength meter for rats and mice (Muromachi Kikai Co., Ltd.), respectively. […]"}, "[1]": {"test": "Body weight and behavior during the dosing period", "type": "in vivo, mouse", "conditions": "intraperitoneal, twice a week over three months, 20 mg/kg/day; young and old mice", "description": "as §1"}, "old mice": {"system": "old mice", "test": "Muscle mass by MRI (volume of right gastrocnemius muscle/soleus muscle), with/without treadmill exercise", "type": "in vivo, mouse", "description": "OK-1 was then intraperitoneally administered to each mouse twice a week at 20 mg/kg/day over 8 weeks (i.e., until reaching 23 week old and 88 week old, respectively). Treadmill exercise was conducted three times a week at 8 m/minute for 5 minutes→15 m/minute for 35 minutes while administering OK-1 twice a week at 20 mg/kg/day over 5 weeks (i.e., until reaching 28 week old and 93 week old, respectively). The muscle mass was then measured with the following equipment and conditions through MRI (FIG. 1B). MRI (MRminiSA1545, Japan REDOX) (magnetic flux density: 1.5 tesla (permanent magnet) (temporal resolution: 100 ns) was used to capture images of the lower limbs of the mice. The recovered data was converted into dicom data, and the volume of right gastrocnemius muscle/soleus muscle was quantified with Osirix Lite."}, "[2]": {"system": "Activin Receptor and ACVR2B", "conditions": "cited from earlier work"}}}
{"molecule": "O=C1[C@H](Cc2ccc(O)cc2)N2C(=O)CCN(C(=O)NCc3ccccc3)[C@H]2CN1Cc1cccc2ccccc12", "note": "[ICG-001]", "values": [{"measurement": "gene expression levels versus untreated cells", "setting": "C2C12 cells", "value": "change in gene expression similar to Example 2"}]}
{"molecule": "O=C1[C@H](Cc2ccc(O)cc2)N2C(=O)CCN(C(=O)NCc3ccccc3)[C@H]2CN1Cc1cccc2ccccc12", "note": "[compound 8]", "values": [{"measurement": "muscle strength (endurance) through a treadmill test", "setting": "old mice (C57BL/6J)", "value": "increase in muscle strength due to administration of compound 8 was observed specifically in old mice"}, {"measurement": "change in body weight and behavioral abnormality during the dosing period", "setting": "[1]", "value": "a significant change in body weight and behavioral abnormality were not observed"}, {"measurement": "muscle mass (MRI), combined use of administration with exercise", "setting": "old mice; 20 mg/kg/day twice a week plus treadmill exercise three times a week over 5 weeks", "value": "muscle mass significantly recovers synergistically"}, {"measurement": "muscle mass (MRI)", "setting": "old mice; intraperitoneal 20 mg/kg/day twice a week over 8 weeks, then 5 further weeks", "value": "increases muscle mass in old mice"}]}
{"molecule": "B1", "values": [{"measurement": "muscle mass", "setting": "[2]; background statement", "value": "promotes muscle differentiation to increase muscle mass"}, {"measurement": "sarcopenia symptoms including the gait speed and grip strength", "setting": "[2]; phase 2 trial completed, development discontinued in 2018", "value": "has not resulted in dramatic improvement in sarcopenia symptoms including the gait speed and grip strength"}]}
